Measurements taken from publication PMC10052652 (Molecules, 2023).
Where “and” joins values, the source holds several entries; their conditions need not be identical. Identical values can stand only once. Like-named read-outs stand apart in the source and are kept apart here.

What was measured:
[1] = ABTS radical cation scavenging assay; conditions: for ABTS Assay %: at 100 µM
[2] = target: T1, acetylcholinesterase (AChE) (Homo sapiens, UniProt P22303); assay: biochemical
Description: The enzymatic activity was assessed via a modified colorimetric Ellman′s method. First, 50 µL of Tris-HCl buffer (pH 8), 25µL of a buffer solution of the sample (50 µg/mL), and 25 µL of an acetylcholinesterase (AChE) enzyme solution containing 2.8 U/mL were mixed. A reaction was then initiated via the addition of 125 µL of 3 mM […]. After incubation for 15 min at 25 °C, 25 µL of a solution of iodide acetylthiocholine15 mM was added to a 96-well microplate. […] Inhibition (%) was calculated in the following way: Inhibition (%) = [(A control − A sample)/A control] × 100, where (A sample) is the absorbance of the molecule containing the reaction and (A control) is the absorbance of the reaction control. Tests were carried out in triplicate.

HCT116 cells = assay: Cytotoxic activity, MTT assay, HCT116; type: cell-based, human
Description: (§1) The cancer cell lines used in this study were HCT116 (colorectal carcinoma), IGROV1 (ovarian cancer), OVCAR3 (ovarian cancer), and MCF7 (mammary gland/breast cancer). […] Cell lines were maintained in culture and were incubated at 37 °C in an incubator with 5% CO2 in a humidified atmosphere. All tests were established at 80% of confluence, and viability was estimated with a trypan blue exclusion assay.
(§2) The cytotoxic activities of molecules against cancer cell lines were evaluated using an MTT assay. The MTT colorimetric assay was performed using 96-well plates. Cells were seeded in a 96-well plate, at a concentration of 10 × 10^3 cells/well for HCT116 and 12 × 10^3 cells/well for MCF7, IGROV1, and OVAR. Adherent cells were dispatched and incubated at 37 °C overnight in a 5% CO2-enriched atmosphere. […] After that, the medium was removed, and cells were treated with 50 µL of 3-(4,5-dimethylthazolk-2-yl)-2,5-diphenyl tetrazolium bromide (MTT) solution (3 mg/mL in PBS) at 37 °C for 20 to 40 min. To dissolve the […], we added 80 µL of 100% DMSO. Optical density was measured at 540 nm. All tests were established in triplicate. […]

MCF7 cells = assay: Cytotoxic activity, MTT assay, MCF7; type: cell-based, human
Description: Optical density was measured at 540 nm. All tests were established in triplicate.

OVCAR-3 cells = assay: Cytotoxic activity, MTT assay, OVCAR-3; type: cell-based; conditions: Homo sapiens, OVCAR-3, 72 h, read-out: IC50 OVCAR-3
Description: as §1, §2

SKOV-3 cells = assay: Cytotoxic activity, MTT assay, SKOV-3; type: cell-based, human
[3] = target: T1, acetylcholinesterase (AChE); type: biochemical; conditions: at 100 µM
[4] = target: superoxide dismutase (SOD) (Homo sapiens, UniProt P00441); type: biochemical; conditions: at 100 µM
superoxide dismutase (SOD), sequence (P00441 whole entry): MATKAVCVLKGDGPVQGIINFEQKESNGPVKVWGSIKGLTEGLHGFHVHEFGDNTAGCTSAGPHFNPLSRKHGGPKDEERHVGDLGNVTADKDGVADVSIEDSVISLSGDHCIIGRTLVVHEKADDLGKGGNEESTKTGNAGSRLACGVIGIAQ

α-amylase = target: T2, α-amylase (Homo sapiens, UniProt P04746); assay: Anti-α-amylase activity (starch/DNS); conditions: for Anti α-Amylase %: at 100 µM
T2 sequence (P04746 16-511): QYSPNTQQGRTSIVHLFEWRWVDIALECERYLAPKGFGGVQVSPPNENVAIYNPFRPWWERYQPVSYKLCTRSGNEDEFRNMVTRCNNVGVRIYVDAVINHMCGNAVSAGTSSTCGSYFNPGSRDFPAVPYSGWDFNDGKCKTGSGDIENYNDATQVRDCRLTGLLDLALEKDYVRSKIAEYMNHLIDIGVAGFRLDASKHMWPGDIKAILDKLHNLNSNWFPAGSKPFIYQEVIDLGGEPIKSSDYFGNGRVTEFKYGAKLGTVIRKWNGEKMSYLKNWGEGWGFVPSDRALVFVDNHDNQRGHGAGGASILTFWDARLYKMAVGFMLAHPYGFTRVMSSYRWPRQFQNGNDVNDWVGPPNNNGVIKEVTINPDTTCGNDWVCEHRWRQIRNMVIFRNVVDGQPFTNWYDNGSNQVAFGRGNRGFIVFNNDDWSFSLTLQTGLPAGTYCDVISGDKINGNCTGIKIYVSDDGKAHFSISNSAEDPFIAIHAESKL
Description: The α-amylase inhibitory activity (%) value was defined as the percentage decrease in the maltose production rate over the control. […] After 15 min, this mixture was removed from the water bath and diluted with 900 µL of distilled water. The anti-α-amylase activity was determined by measuring the absorbance at 540 nm. Blank incubations were determined as the absorbance produced by samples where the enzyme was replaced with a buffer solution. […] The IC50 values were calculated from the mean values of the percentage of α--amylase inhibition data, determined in triplicate.

IGROV-1 cells = assay: Cytotoxic activity, MTT assay, IGROV-1; conditions: for Cytotoxic activity against IGROV-1 (in words): at 100 µM; for IC50: Homo sapiens, IGROV-1, read-out: IC50 IGROV-1
Description: as §1
The cytotoxic activities of molecules against cancer cell lines were evaluated using an MTT assay. The MTT colorimetric assay was performed using 96-well plates. Cells were seeded in a 96-well plate, at a concentration of 10 × 10^3 cells/well for HCT116 and 12 × 10^3 cells/well for MCF7, IGROV1, and OVAR. Adherent cells were dispatched and incubated at 37 °C overnight in a 5% CO2-enriched atmosphere. Cells in the exponential growth phase were incubated at 37 °C for 72 h, with each tested sample at 50 µg/mL. After that, the medium was removed, and cells were treated with 50 µL of 3-(4,5-dimethylthazolk-2-yl)-2,5-diphenyl tetrazolium bromide (MTT) solution (3 mg/mL in PBS) at 37 °C for 20 to 40 min. To dissolve the […], we added 80 µL of 100% DMSO. Optical density was measured at 540 nm. All tests were established in triplicate. The anti-cancer effect of samples was estimated in terms of growth inhibition percentage.

[5] = Homo sapiens, HCT-116, 72 h, read-out: IC50 HCT116, MTT, 72 h
[6] = Homo sapiens, SK-OV-3, 72 h, read-out: IC50 SKOV-3, MTT, 72 h
[7] = read-out: IC50 HCT116, MTT, 72 h

T1 sequence (P22303 32-614, species assumed): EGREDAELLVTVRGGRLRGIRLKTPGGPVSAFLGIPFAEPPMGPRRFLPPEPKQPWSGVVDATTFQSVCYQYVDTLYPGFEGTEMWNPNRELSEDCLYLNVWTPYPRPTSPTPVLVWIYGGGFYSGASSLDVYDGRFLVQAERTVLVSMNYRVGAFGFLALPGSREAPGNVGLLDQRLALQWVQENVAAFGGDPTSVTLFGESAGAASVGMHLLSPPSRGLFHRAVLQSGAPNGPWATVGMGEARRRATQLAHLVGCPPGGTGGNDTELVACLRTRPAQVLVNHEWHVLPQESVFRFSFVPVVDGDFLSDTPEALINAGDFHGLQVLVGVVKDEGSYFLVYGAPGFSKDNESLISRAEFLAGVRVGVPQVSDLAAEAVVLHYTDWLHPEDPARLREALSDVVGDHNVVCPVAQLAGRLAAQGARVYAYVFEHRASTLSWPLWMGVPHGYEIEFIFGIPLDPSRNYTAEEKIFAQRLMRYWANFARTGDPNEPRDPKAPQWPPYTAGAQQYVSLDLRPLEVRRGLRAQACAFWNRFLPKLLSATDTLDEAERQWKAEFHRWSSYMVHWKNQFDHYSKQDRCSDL

Structure (SMILES)	IC50 [1]	IC50 [2]	IC50 (HCT116 cells; [5])	IC50 (MCF7 cells; Homo sapiens, MCF7, 72 h)	IC50 (OVCAR-3 cells)	IC50 (SKOV-3 cells; [6])	Anti ACHE % [3]	Anti SOD % [4]	IC50 (α-amylase)	Anti α-Amylase % (α-amylase)	ABTS Assay % [1]	IC50 (HCT116 cells; [7])	IC50 (MCF7 cells; 72 h)	IC50 ([2]; read-out: Anti ACHE IC50)	Cytotoxic activity against IGROV-1 (in words) (IGROV-1 cells)	IC50 (IGROV-1 cells)	IC50 (SKOV-3 cells; read-out: IC50 SKOV-3, MTT, 72 h)
O=c1cc(-c2ccccc2)oc2cc(O)c(O)c(O)c12 [Molecule M7, 5,6,7-trihydroxyflavone]	6.3 ± 0.1 µM	10.2 ± 3 µM	38.5 ± 1.3 µM	33.1 ± 1.4 µM	> 50 µM	15.6 ± 0.1 µM	62.0 ± 1.9%	71.2 ± 2.3%	3.4 ± 0.1 µM	96.9 ± 1.7%							
O=c1cc(-c2ccccc2)oc2cccc(O)c12 [Molecule M4, 5-hydroxyflavone]	> 100 µM	> 100 µM	> 100 µM	> 50 µM	> 50 µM	> 50 µM		25.9 ± 2.5%	37.9 ± 0.8 µM	58.4 ± 1.4%	16.0 ± 1.5%	> 50 µM	> 100 µM				
O=c1cc(-c2cc(O)cc(O)c2)oc2ccccc12 [Molecule M8, 3′,5′-dihydroxyflavone]	7.3 ± 0.1 µM		33.1 ± 0.1 µM	40.4 ± 0.7 µM	> 50 µM	> 50 µM	49.3 ± 2.2%	52.3 ± 0.9%	14.9 ± 0.3 µM	104.8 ± 3.5%				> 100 µM	most active		
COc1ccc(-c2oc3c(CC=C(C)C)c(O[C@@H]4O[C@H](CO)[C@@H](O)[C@H](O)[C@H]4O)cc(O)c3c(=O)c2O[C@@H]2O[C@@H](C)[C@H](O)[C@@H](O)[C@H]2O)cc1 [Molecule M2, Icariin]	20.1 ± 0.1 µM	> 100 µM	> 50 µM	> 100 µM	> 50 µM	> 50 µM	19.3 ± 0.3%	61.7 ± 1.1%	14.1 ± 2.1 µM	58.1 ± 2.2%					not active	> 100 µM	
O=c1cc(-c2cccc(O)c2)oc2cc(O)ccc12 [Molecule M13, 7,3′-dihydroxyflavone]	24.5 ± 0.1 µM		39.3 ± 0.8 µM	38.5 ± 1.2 µM	> 50 µM	42.1 ± 0.7 µM	63.9 ± 3.3%	56.6 ± 1.7%	1.4 ± 0.1 µM	91.7 ± 4.9%				> 50 µM	most active		
O=c1cc(-c2cccc(O)c2)oc2ccc3ccccc3c12 [Molecule M9, 3′-hydroxy-b-naphthoflavone]	> 100 µM		> 50 µM	> 50 µM	> 50 µM	> 50 µM	47.9 ± 4.0%	19.8 ± 2.9%	2 ± 0.2 µM	86.6 ± 2.3%				> 100 µM	not active	> 100 µM	
O=c1cc(-c2ccccc2)oc2ccc(O)cc12 [Molecule M3, 6-hydroxyflavone]	24 ± 0.1 µM		> 100 µM	> 50 µM	44.7 ± 1.2 µM	> 100 µM		54.8 ± 3.2%	10.9 ± 0.1 µM	90.3 ± 3.2%		> 50 µM		> 100 µM	most active		> 50 µM
O=c1cc(-c2ccccc2)oc2cc(O)ccc12 [Molecule M5, 7-hydroxyflavone]	> 100 µM	> 100 µM	> 100 µM	> 50 µM	> 50 µM	> 50 µM		74.3 ± 3.1% and 74.3 ± 3.02%	1.2 ± 0.1 µM	90.3 ± 3.2%	5.9 ± 0.4%	> 50 µM			most active		
O=c1cc(-c2ccccc2)oc2cc(O)cc(O)c12 [Molecule M1, 5,7-dihydroxyflavone]	> 50 µM	> 100 µM	> 100 µM	35.9 ± 0.8 µM	> 50 µM	> 50 µM	45.8 ± 1.3%	41.5 ± 1.8%	36.6 ± 0.2 µM	59.7 ± 2.0%		> 50 µM			most active		
COc1cc(-c2cc(=O)c3ccc4c(O)cccc4c3o2)cc(OC)c1OC [Molecule M18, 7-hydroxy-3′,4′,5′-trimethoxy-α-naphthoflavone]	> 50 µM		45 ± 0.9 µM	> 50 µM	> 50 µM	37.3 ± 1 µM	43.3 ± 1.8%	32.7 ± 3.9%	> 100 µM					> 100 µM	not active	> 100 µM	
